According to article PMC6753678, “Fueling Open Innovation for Malaria Transmission-Blocking Drugs: Hundreds of Molecules Targeting Early Parasite Mosquito Stages” (Frontiers in Microbiology, 2019):
Read-outs that look alike come from different tables or passages of the source.

Experiments:
[1] = test system: 3D7-strain P. falciparum asexual parasites; assay: P. falciparum asexual growth inhibition assay (Pf GIA); assay type: cell-based, Plasmodium falciparum; details: dose response confirmation; read-out: Pf asexual growth inhibition assays IC50
Method in brief: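 Read-out was lactate dehydrogenase activity measured by absorbance at 650 nm after freezing and thawing, against 50 μM chloroquine and DMSO controls. Before that, asexual 3D7 cultures (0.25% parasitemia, 2% hematocrit) had 72 h dose-response compound exposure at 37°C in 5% CO2/5% O2/90% N2; three independent replicates averaged.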

HepG2 cells = assay: HepG2 cytotoxicity assay; details: for Pb ODA (this manuscript) HepG2 cytoxicity: HepG2 cytotoxicity listed with the Pb ODA data set (this manuscript); for IC50: read-out: HepG2 cytotoxicity assay IC50, dose response confirmation
Method in brief: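 Cells are plated at 2,500 per well on compound-treated plates in MEM containing 10% fetal bovine serum and 1% NEAA, then incubated 48 h at 37°C.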

[2] = test system: P. berghei ookinete development; details: for % inhibition, Replicate A / % inhibition, Replicate B: primary screen at 1 μM
[3] = read-out: Pb Ookinete development assay IC50, dose response confirmation
[4] = read-out: Pb ODA (this manuscript) IC50, P. berghei ookinete development assay, this manuscript
[5] = unified HepG2 value across the three screens
[6] = read-out: Pb ODA IC50, this manuscript
[7] = HepG2 values of the three screens unified

Compound	IC50 [1] [µM]	Pb ODA (this manuscript) HepG2 cytoxicity (HepG2 cells) [µM]	IC50 (HepG2 cells) [µM]	Is compound selective in assay? Pb ODA active? [2]	% inhibition, Replicate A [2] [%]	% inhibition, Replicate B [2] [%]	IC50 [2, 3] [µM]	IC50 [2, 4] [µM]	Unified cytotox (HepG2 cells; [5]) [µM]	Is compound selective in assay? Pb ODA active? ([2]; 1: YES, 0: NO)	IC50 [2, 6] [µM]	HepG2 cytoxicity (Pb ODA, this manuscript) (HepG2 cells) [µM]	Unified cytotox (HepG2 cells; [7]) [µM]	IC50 ([2]; read-out: Pb ODA IC50) [µM]	IC50 ([2]; read-out: Pb Ookinete development assay IC50) [µM]
COc1ccc2c(=O)c(I)c(C)[nH]c2c1 [TCMDC-138141]	< 0.0003	0.0017	0.0017	0 (key: 1: YES; 0: NO)	99.28	96.77	0.14								
Cc1ccc(S(=O)(=O)N2CCCN(C(=O)c3cc(-c4ccccc4)n[nH]3)CC2)cc1 [TCMDC-125243]	0.273	100.00	100	1 (key: 1: YES; 0: NO)	53.41	33.70	5.42	5.42							
Cc1ccc(Nc2nc3cc(N(C)c4ccnc(Nc5cccc(CCS(C)(=O)=O)c5)n4)ccc3n2C)cc1.O=C(O)C(F)(F)F [TCMDC-138853]	0.000433		3.31		113.72	29.45	1.88		3.31	0 (0: NO)	1.88				
Cc1[nH]c2ccccc2c1C(=O)C(C)Sc1nnc(-c2ccccc2F)o1 (stereo not drawn) [TCMDC-125312]	1.27		57.5		63.08	65.66	2.58		57.54	1 (1: YES)					
O=C(Nc1ccccc1)Nc1ccc(-n2ccc(C(F)(F)F)n2)cc1 [TCMDC-123480]	0.419		100		42.19	52.26	1.9		100.00	1 (1: YES)	1.9				
COc1ccc2ncc(Cl)c(NCC3(O)CCC(NCc4ccc5c(n4)NC(=O)CS5)CC3)c2n1.Cl (stereo not drawn) [TCMDC-134671]	1.21		12.6		92.69	100.49	0.813			1 (1: YES)	0.81	12.59	12.59		
CC(C)c1nc(N2CCN(C(=S)NCc3ccccc3)CC2)c(C#N)c2c1COC(C)(C)C2 [TCMDC-124093]	0.055		0.0017		50.94	54.99	0.76		0.0017	0 (0: NO)					
CCCCCCCc1c(C)[nH]c2ccccc2c1=O [TCMDC-137425]	0.222	100.00	100	1 (key: 1: YES; 0: NO)	71.66	86.67	0.388	0.39							
COc1cc(NC2=NS(=O)(=O)c3cc(Cl)ccc3N2C)cc(OC)c1OC.O=C(O)C(F)(F)F [TCMDC-134208]	0.146		100		117.05	98.94	1.35		100.00	1 (1: YES)	1.35				
Cc1cc(=O)c(-c2ccc(Oc3cccc(OC(F)(F)F)c3)cc2)c(C)[nH]1 [TCMDC-137266]	0.099	10.72	10.7	1 (key: 1: YES; 0: NO)	74.10	97.06	0.205	0.2							
CN(C)CCN(C)C(=O)c1cc(-c2ccncc2)c(-c2ccc(Cl)c(O)c2)o1.Cl [TCMDC-141393]	2.49		53.7		35.76	53.63	1.75		53.70	1 (1: YES)	1.75				
CCCCCCCCc1c(C)[nH]c(C)c(C#N)c1=O [TCMDC-137431]	0.794		34.7		93.99	59.83	0.46		34.67	1 (1: YES)					
CCN1CCN(CCNc2c3ccccc3nc3ccccc23)CC1.Cl [TCMDC-137545]	0.606		11.8		68.50	47.85	1.78			0 (0: NO)	1.78	11.75	11.75		
COc1cc(Cn2ccc3c4c(N)nc(N)nc4ccc32)cc(OC)c1OC [TCMDC-137341]	< 0.0003		0.0017		61.35	58.11						0.0017	0.0017	0.56	0.556
c1ccc(CCNc2ncnc3c2[nH]c2ccccc23)cc1 [TCMDC-124578]	0.27		10.6		104.22	87.03	0.368		10.59	1 (1: YES)	0.37				
CCc1cc2c3c(N)nc(N)nc3ccc2n1C(C)(C)C [TCMDC-137306]	0.0032		0.0017		81.63	92.90	1.08			0 (0: NO)	1.08	0.0017	0.0017		
NCC(NC(=O)c1ccc(-c2c[nH]c3ncccc23)s1)c1ccccc1.O=CO (stereo not drawn) [TCMDC-134154]	0.558		16.2		101.79	81.42	0.964		16.22	1 (1: YES)	0.96				
CCC(C)(C)c1ccc2nc(N)nc(N)c2c1C [TCMDC-137829]	0.00107		0.0017		40.64	76.04	3.1		0.0017	0 (0: NO)	3.1				
Cc1[nH]c(C)c(-c2ccc(-c3ccccc3C(F)(F)F)nc2)c(=O)c1Br [TCMDC-135881]	0.191		100		87.53	97.69	0.973			1 (1: YES)	0.97		100.00		
CCCCN(C)CC#Cc1ccc(-c2ccc3[nH]c(C)c(Br)c(=O)c3c2)cn1 [TCMDC-136285]	1.06		100		73.89	66.49	1.02		100.00	1 (1: YES)	1.02				
